Consider two compounds from article PMC5443783, “Prostaglandin E2 glyceryl ester is an endogenous agonist of the nucleotide receptor P2Y6” (Scientific Reports, 2017).

Several values for one entry are separate records, joined by “and”; a condition that tells them apart may be missing. Equal entries are not always repeated. Where two headings read alike, the source gives them in different places.

Assay [1] has as its target T1, P2Y6 (Homo sapiens, UniProt Q15077). Kind of assay: IP3 assay in P2RY6-transfected HEK293 cells. In kind it is cell-based. Also noted: expressed in transfected cells; host or cells: HEK293. As to conditions: Fig. 3a, read-out: EC50, IP3 levels. The method, then:
(§1) To measure intracellular IP3 the HitHunter® Inositol (1,4,5) Triphosphate Assay (DiscoveRx, USA) was used according to manufacturer′s protocol. HEK293 cells stably transfected with hP2RY6 were seeded in a 384-well Black microtiter plate (15,000 cells/well) (Greiner Bio One, Germany) and incubated with indicated concentrations of UDP and PGE2-G for 20 seconds. Reaction was stopped by adding 5 µl 0.2 N perchloric acid and measurement of IP3 was performed with the Fusion AlphaScreen multilabel reader (PerkinElmer Life Sciences) according to manufacturer′s protocol. To measure IP1, HEK293 cells expressing wildtype and mutant P2Y6 were seeded into 384-well plates (5,000 cells/well) 24 h prior assay. After aspiration of the medium, cells were incubated with indicated concentrations of agonists/antagonist for 1 h. IP1 measurements using the IP-one HTFR® assay kit (Cisbio assays, USA) were performed according to manufacturer′s protocol. The assays were performed with a final concentration of 1% DMSO.

For a further assay, the target named is T2, P2Y6 Y262 to alanine (Homo sapiens, UniProt Q15077, Y262A).
T2 construct: expressed in transfected cells; host or cells: HEK293
Kind of assay: IP1 accumulation assay, mutant P2Y6 Y262A. As to conditions: Fig. 6d. Format: cell-based.
Excerpt: cDNA from H1819 cells was used to amplify and clone the P2RY6 and CNR2 coding sequences. They were double-tagged with an N-terminal HA epitope and a C-terminal FLAG epitope and, for transient transfection, introduced into the mammalian expression vector pcDps[56]. All mutant constructs were generated by a PCR-based site-directed mutagenesis and fragment replacement strategy. For stable transfection, P2RY6 was sub-cloned into the pIRES-eGFP vector (CLONTECH Laboratories, USA). All constructs were verified by sequencing.
as §1, with “IP1 measurements using the IP-one HTFR® assay kit (Cisbio assays, USA) were performed according to manufacturer′s protocol. The assays were performed with a final concentration of 1% DMSO.” left out

In assay [2] the target is T1, P2Y6. The experiment in a line: cAMP-inhibition assay in P2RY6-transfected HEK293 cells. In kind it is cell-based. Also noted: expressed in transfected cells; host or cells: HEK293. As to conditions: P2RY6-transfected HEK293, 2.5 µM forskolin, Fig. 3c; read-out: EC50, suppression of cAMP formation. The method, then: After transfection (72 h), cells were washed once with DMEM/F12 containing 1 mM 3-isobutyl-methyl-xanthine (IBMX) followed by incubation in the presence of the indicated compounds and forskolin (2.5 µM) for 15 min at 37 °C. The final concentration of DMSO was 1%. Cells were lysed in 25 μl lysis buffer (5 mM HEPES; 0.1% BSA; 0.3% Tween20; 1 mM IBMX; pH 7.4) and kept frozen at −20 °C until measurement. To measure cAMP concentration, the AlphaScreen cAMP assay kit (PerkinElmer Life Sciences) was used according to the manufacturer’s protocol.
In general terms: cAMP levels reflect the balance of adenylyl cyclase and phosphodiesterase activity.

Assay [3] concerns RAW264.7 cells. Kind of assay: Intracellular Ca2+ measurement in RAW264.7 cells. Format: cell-based, mouse. The method, then: (§2) For fluorometric measurements of intracellular Ca^2+ levels with the FlexStationII instrument (Molecular Devices), RAW264.7 and H1819 cells were seeded into 96-well plates (3.0 × 10^4 cells/well) 24 h prior to assay. Ca^2+ measurements with transiently transfected HEK293 cells were performed 48 h after transfection. Cells were loaded with 200 µl Calcium 5 reagent (Explorer Kit, Molecular Devices, USA) for 60 min at 37 °C, and the assay was performed as described. Agonists and inhibitors were solved in DMSO (100x) and diluted […] in 96-well compound plates containing HBSS. 50 µl of compound solution were added to the assay plate resulting in final concentration of 1% DMSO. Fold-response was calculated by RFUmax − RFUmin (ligand)/RFUmax − RFUmin (vehicle). EC50 values were calculated by using GraphPad Prism6 software (GraphPad, USA).

Assay [4] has as its target T1, P2Y6. Kind of assay: Intracellular Ca2+ measurement in HEK293 cells transfected with P2RY6. Format: cell-based. Also noted: expressed in transfected cells; host or cells: HEK293. As to conditions: for effect on cytosolic Ca2+ levels: HEK293 transiently transfected with P2RY6, concentration-dependent. On the procedure:
(§3) RAW264.7 cells were grown in DMEM supplemented with 10% FBS, A7r5 (rat […]) cells in DMEM with 10% FBS, and A431 (human squamous carcinoma) cells in RPMI supplemented with 10% FBS. All cell lines were grown at 37 °C in a humidified 5% CO2 incubator. For functional assays, receptor constructs were heterologously expressed in human embryonic kidney (HEK293) cells upon transient or stable transfection. Cells were grown in DMEM/F12 supplemented with 10% FBS, 100 units/ml penicillin, and 100 µg/ml streptomycin. For the cAMP-inhibition assay, ERK1/2 phosphorylation assay, and Ca^2+ mobilization assay, cells were split into 96-well plates (2.0 × 10^4 cells/well) and transfected with 250 ng vector construct using MACSfectin™ (Miltenyi Biotec, Germany) according to manufacturer’s protocol. Empty vector (mock) served as the negative control. For siRNA experiments, cells were seeded in 6-well plates (4.0 × 10^5 and 6.0 × 10^5 cells/well for RAW264.7 and H1819, respectively). RAW264.7 and H1819 cells were transfected with 150 pMol of mP2RY6 siRNA and hP2RY6 siRNA (Santa Cruz Biotechnology, USA), respectively, using Viromer® Blue (Lipocalyx, Germany). As a negative control, control siRNA-A (Santa Cruz Biotechnology, USA) was used. FITC-labelled siRNA served as a transfection control.
To generate a cell line stably expressing P2Y6, HEK293 cells were seeded in 6-well plates (7.5 × 10^5 cells/well) and transfected with 3 µg vector using MACSfectin™ as transfection regent according to the manufacturer’s protocol. The pIRES-eGFP vector served as negative control. Stably transfected HEK293 cells were cultured in the presence of geneticin (500 µg/ml) for selection.
as §2

In assay [5] the test system is RAW264.7 cells. As to conditions: RAW264.7 and H1819 cell lines; read-out: EC50, Ca2+ response; cited from earlier work.
Assay [6] has as its target T3, cannabinoid receptor 2 (Cnr2) (Homo sapiens, UniProt P34972).
T3 construct: expressed in transfected cells; host or cells: HEK293
The experiment in a line: Intracellular Ca2+ measurement in CNR2-transfected HEK293 cells. Format: cell-based. As to conditions: 200 nM of 2-AG, Fig. 2c. On the procedure:
as §3, with “RAW264.7 and H1819 cells were transfected with 150 pMol of mP2RY6 siRNA and hP2RY6 siRNA (Santa Cruz Biotechnology, USA), respectively, using Viromer® Blue (Lipocalyx, Germany). As a negative control, control siRNA-A (Santa Cruz Biotechnology, USA) was used. FITC-labelled siRNA served as a transfection control.” left out
For fluorometric measurements of intracellular Ca^2+ levels with the FlexStationII instrument (Molecular Devices), RAW264.7 and H1819 cells were seeded into 96-well plates (3.0 × 10^4 cells/well) 24 h prior to assay. […] Fold-response was calculated by RFUmax − RFUmin (ligand)/RFUmax − RFUmin (vehicle). EC50 values were calculated by using GraphPad Prism6 software (GraphPad, USA).

Setting [7] is: HEK293 transiently transfected with P2RY6, Fig. 2b, read-out: EC50, intracellular Ca2+.

T1 sequence (Q15077 whole entry, the tested form may be a part): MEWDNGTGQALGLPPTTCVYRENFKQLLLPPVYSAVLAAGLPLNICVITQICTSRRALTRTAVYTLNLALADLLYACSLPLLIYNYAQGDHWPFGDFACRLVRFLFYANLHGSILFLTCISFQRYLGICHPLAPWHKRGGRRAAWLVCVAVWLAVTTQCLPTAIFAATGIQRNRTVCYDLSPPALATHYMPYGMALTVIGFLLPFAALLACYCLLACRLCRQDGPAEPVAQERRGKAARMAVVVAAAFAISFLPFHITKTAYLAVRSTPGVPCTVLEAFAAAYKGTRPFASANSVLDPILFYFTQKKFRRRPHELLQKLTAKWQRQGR
T2 sequence (Q15077 whole entry Y262A): as the sequence (Q15077 whole entry, the tested form may be a part) above, with Y262A counted along it
T3 sequence (P34972 whole entry): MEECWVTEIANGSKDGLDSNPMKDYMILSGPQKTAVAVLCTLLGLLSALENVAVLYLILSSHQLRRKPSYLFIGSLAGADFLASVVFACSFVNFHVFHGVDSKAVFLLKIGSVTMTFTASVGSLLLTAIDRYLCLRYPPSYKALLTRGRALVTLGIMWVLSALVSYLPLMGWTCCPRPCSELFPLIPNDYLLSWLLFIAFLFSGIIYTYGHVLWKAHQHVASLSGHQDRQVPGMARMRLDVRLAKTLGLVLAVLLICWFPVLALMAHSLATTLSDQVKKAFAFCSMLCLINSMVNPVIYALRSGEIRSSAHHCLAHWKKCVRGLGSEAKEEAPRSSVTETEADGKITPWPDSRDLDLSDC

For orientation: EC50 means the concentration needed to bring the measured effect to its halfway point. For the compound `O=c1ccn([C@@H]2O[C@H](COP(=O)(O)OP(=O)(O)O)[C@@H](O)[C@H]2O)c(=O)[nH]1` [UDP], the EC50 on P2Y6 [1] is 2.7 ± 0.1 nM; on P2Y6 [2], 3.6 ± 0.3 nM; in the assay with RAW264.7 cells [3] (Fig. 1d, read-out: EC50, intracellular Ca2+ release), 38.4 ± 1.9 nM; on P2Y6 [4] (HEK293 stably transfected with P2RY6, Fig. 5, read-out: EC50, Ca2+ mobilization assay), 57.1 ± 2.5 nM; on P2Y6 [4] (setting [7]), 78.3 ± 6.7 nM. Besides, the “IP1 formation at mutant receptor” value at P2Y6 Y262 to alanine is reported as “significantly reduced activity”. Also, the “effect on cytosolic Ca2+ levels” value on P2Y6 [4] was “increased the cytosolic Ca^2+ levels”.
Turning to “Prostaglandin E2 glyceryl ester [PGE2-G]”, the EC50 with RAW264.7 cells [5] is around 0.001 nM; at P2Y6 [4] (setting [7]), ~0.001 nM and 0.0012 nM. The “IP1 formation at mutant receptor” value on P2Y6 Y262 to alanine is listed as “fully activated”. The “Maximum RFU for PGE2-G” value in the assay on RAW264.7 cells [3] (control (1% DMSO) 1,560 ± 479) is on record as 3,649 ± 678 RFU. For the same compound, the “ratio of EC50 values UDP / PGE2-G” value at P2Y6 [4] (Ca2+ measurements in transfected HEK cells, Fig. 2b) was ~ 65,000. In addition, the “effect on cytosolic Ca2+ levels” value at P2Y6 [4] is “increased the cytosolic Ca^2+ levels”. The “effect on intracellular Ca2+” value in assay [6] is “did not”.
